According to the NIST ThermoML archive (doi:10.1016/j.jct.2012.03.003):

Assay: xn = mol fraction of the nth substance listed
Details: Liquid, Vibrating tube method

COc1cc2c(cc1O)CC1c3c(cc(O)c(OC)c3-2)CCN1C (stereo not given) [boldine] + CCO
Details	mass density [kg/m3]
342.92 K, 18000 kPa, x1 = 0.0074	778.92
342.92 K, 19000 kPa, x1 = 0.0012	767.14
342.92 K, 19000 kPa, x1 = 0.0074	779.83
342.92 K, 20000 kPa, x1 = 0.0012	768.07
342.92 K, 20000 kPa, x1 = 0.0074	780.71
343.02 K, 1000 kPa, x1 = 0.0136	775.25
343.02 K, 2000 kPa, x1 = 0.0136	776.31
343.02 K, 3000 kPa, x1 = 0.0136	777.37
343.02 K, 4000 kPa, x1 = 0.0136	778.42
343.02 K, 5000 kPa, x1 = 0.0136	779.47
343.02 K, 6000 kPa, x1 = 0.0136	780.52
343.02 K, 7000 kPa, x1 = 0.0136	781.56
343.02 K, 8000 kPa, x1 = 0.0136	782.6
343.02 K, 9000 kPa, x1 = 0.0136	783.63
343.02 K, 10000 kPa, x1 = 0.0136	784.63
343.02 K, 11000 kPa, x1 = 0.0136	785.65
343.02 K, 12000 kPa, x1 = 0.0136	786.65
343.02 K, 13000 kPa, x1 = 0.0136	787.64
343.02 K, 14000 kPa, x1 = 0.0136	788.62
343.02 K, 15000 kPa, x1 = 0.0136	789.58
343.02 K, 16000 kPa, x1 = 0.0136	790.53
343.02 K, 17000 kPa, x1 = 0.0136	791.46
343.02 K, 18000 kPa, x1 = 0.0136	792.39
343.02 K, 19000 kPa, x1 = 0.0136	793.28
343.02 K, 20000 kPa, x1 = 0.0136	794.17
352.79 K, 1000 kPa, x1 = 0.0196	780.8
352.79 K, 2000 kPa, x1 = 0.0196	781.92
352.79 K, 3000 kPa, x1 = 0.0196	783.03
352.79 K, 4000 kPa, x1 = 0.0196	784.09
352.79 K, 5000 kPa, x1 = 0.0196	785.23
352.79 K, 6000 kPa, x1 = 0.0196	786.32
352.79 K, 7000 kPa, x1 = 0.0196	787.4
352.79 K, 8000 kPa, x1 = 0.0196	788.47
352.79 K, 9000 kPa, x1 = 0.0196	789.53
352.79 K, 10000 kPa, x1 = 0.0196	790.58
352.79 K, 11000 kPa, x1 = 0.0196	791.62
352.79 K, 12000 kPa, x1 = 0.0196	792.64
352.79 K, 13000 kPa, x1 = 0.0196	793.65
352.79 K, 14000 kPa, x1 = 0.0196	794.65
352.79 K, 15000 kPa, x1 = 0.0196	795.64
352.79 K, 16000 kPa, x1 = 0.0196	796.61
352.79 K, 17000 kPa, x1 = 0.0196	797.57
352.79 K, 18000 kPa, x1 = 0.0196	798.51
352.79 K, 19000 kPa, x1 = 0.0196	799.44
352.79 K, 20000 kPa, x1 = 0.0196	800.36
352.81 K, 1000 kPa, x1 = 0.0012	738.74
352.81 K, 1000 kPa, x1 = 0.0136	765.67
352.81 K, 2000 kPa, x1 = 0.0012	739.95
352.81 K, 2000 kPa, x1 = 0.0136	766.82
352.81 K, 3000 kPa, x1 = 0.0012	741.15
352.81 K, 3000 kPa, x1 = 0.0136	767.97
352.81 K, 4000 kPa, x1 = 0.0012	742.33
352.81 K, 4000 kPa, x1 = 0.0136	769.1
352.81 K, 5000 kPa, x1 = 0.0012	743.51
352.81 K, 5000 kPa, x1 = 0.0136	770.24
352.81 K, 6000 kPa, x1 = 0.0012	744.68
352.81 K, 6000 kPa, x1 = 0.0136	771.36
352.81 K, 7000 kPa, x1 = 0.0012	745.85
352.81 K, 7000 kPa, x1 = 0.0136	772.46
352.81 K, 8000 kPa, x1 = 0.0012	746.99
352.81 K, 8000 kPa, x1 = 0.0136	773.56
352.81 K, 9000 kPa, x1 = 0.0012	748.13
352.81 K, 9000 kPa, x1 = 0.0136	774.65
352.81 K, 10000 kPa, x1 = 0.0012	749.26
352.81 K, 10000 kPa, x1 = 0.0136	775.73
352.81 K, 11000 kPa, x1 = 0.0012	750.37
352.81 K, 11000 kPa, x1 = 0.0136	776.81
352.81 K, 12000 kPa, x1 = 0.0012	751.47
352.81 K, 12000 kPa, x1 = 0.0136	777.86
352.81 K, 13000 kPa, x1 = 0.0012	752.55
352.81 K, 13000 kPa, x1 = 0.0136	778.9
352.81 K, 14000 kPa, x1 = 0.0012	753.61
352.81 K, 14000 kPa, x1 = 0.0136	779.93
352.81 K, 15000 kPa, x1 = 0.0012	754.67
352.81 K, 15000 kPa, x1 = 0.0136	780.95
